{
  "source": "patent US20070098735A1",
  "about": "“Methods for the Elimination of Pathogens and Other Particulate Agents” (priority 2005, published 2007)",
  "key": {"[1]": {"test_system": "full thickness wounds of naïve mice", "experiment": "Adoptive transfer of pre-treated RAW 264.7 macrophages into wounded mice, wound closure", "assay_type": "in vivo", "description": "Macrophage Cell Culture, Pre-treatment, and Adoptive Transfer. RAW 264.7 macrophages (ATCC) were grown as described by ATCC. Cells were harvested by gently scraping them from the cell culture flasks, centrifuged and washed once in cultured grade PBS. […] They were then washed 3 times with PBS, and were re-suspended to achieve a concentration of 400,000, 40,000, or 4,000 cells per 0.5 ml PBS. Adoptive transfer of these cells was performed by subcutaneous injections in the nape of the neck using a 25-gauge needle in mice that were wounded as previously described. Adoptive transfers were given on days 0, 2 and 4 post-operatively.\nMacrophages were treated in vitro with either HSPs or non-HSP controls and transferred into naïve wounded mice (as described in Materials and Methods) to test if HSPs could in part mediate some of their activity through macrophages. […] Data is plotted as average percent wound closure ±SEM on day 2. *P values were obtained using the Student's t-test by comparing HSP treatment to all of the non-HSP control treatments. The least significant P value was reported.\nTitratability of adoptive transfer was examined by transferring 4,000, 40,000 or 400,000 macrophages pre-treated as described in Materials and Methods."}, "[2]": {"test_system": "CD4+ T cells purified from spleens of DO 11.10 mice", "experiment": "Proliferation of CD4+ T cells after MHC-II presentation of OVA-coated yeast by macrophages (FACS)", "assay_type": "cell-based", "conditions": "macrophages treated with HSP70 100 μg/ml and OVA-coated yeast", "description": "Proliferation of CD4+ T cells and INF-γ (interferon gamma) release. Unlabeled S. cerevisiae (80 μg) was incubated with excess chicken ovary albumin (OVA) at 37° C. for 1 hour and washed repeatedly to eliminate free OVA protein. S. cerevisiae-OVA complexes (OVA-coated yeast) were administered to macrophages treated with or without HSP70. Macrophages were then washed and irradiated at 12,000 rads and assessed for viability by trypan blue exclusion. Subsequently, they were co-cultured with CD4+ T lymphocytes that were purified from spleens of DO 11.10 mice and labeled with carboxyfluoroscein succinimidyl ester (CSFE). […] Following the 48-hour incubation, proliferation of CD4+ cells was determined with FACS and IFN-γ release in the supernatant was tested by enzyme-linked immunosorbent assay (ELISA; Pierce, Ill.).\nAlexafluor labeled S. cerevisiae were coated with whole ovalbumin (OVA) protein 1 mg/ml by co-incubation at 37° C. for 20 minutes and washed until free OVA protein was removed (washes were tested by gel electrophoresis using SDS-PAGE and immunoblotting). […] Resultant proliferation of the CSFE-labeled CD4+ was measured by FACS as an indirect measure of the amount of OVA protein processed and its peptide epitope presented in context of MHC-II. […]"}, "[3]": {"test_system": "Murine macrophage lines (RAW264.7, J774.A1 or RAW264NO-)", "experiment": "Phagocytosis assay in vitro (uptake of Alexa Fluor 488-labeled particles)", "assay_type": "cell-based", "outline": "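Macrophages in serum-free EMEM took up Alexa Fluor 488 beads, yeast or E. coli (40 particles/cell) for 60 min at 37 °C with or without HSPs, LPS or control proteins. Trypan blue (0.8 mg/ml, 60 s) quenched external fluorescence, and intracellular signal was read as relative mean fluorescence intensity. Data are from 3 experiments, 3 wells/group, compared with medium alone by Student's t test.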"}},
  "data": [
    {"substance": "HSP70: heat shock protein purified from murine livers, prepared as a complex with endogenous peptide", "values": [
      {"measurement": "titratability of adoptive transfer by cell number", "setting": "[1]; 4,000, 40,000 or 400,000 pre-treated macrophages", "result": "Increasing the number of HSP pretreated cells increases the percentage of wound closure"},
      {"measurement": "early wound closure after adoptive transfer of pre-treated macrophages", "setting": "[1]; 400,000 macrophages pre-treated at 30 μg/dose", "result": "significantly accelerated early wound closure"},
      {"measurement": "wound healing on day 2 after adoptive transfer of pre-treated macrophages", "setting": "[1]; 400,000 macrophages pre-treated at 30 μg/dose, day 2 post surgery", "result": 62, "unit": "%"},
      {"measurement": "CD4+ proliferation", "setting": "[2]", "result": 20, "unit": "%"},
      {"measurement": "rank as stimulator of phagocytosis among the agents tested", "setting": "[3]; HSP70 100 μg/ml vs TLR7-ligands 1 mg/ml", "result": "most potent stimulator of phagocytosis"},
      {"measurement": "uptake of microbial or non-microbial materials as compared to control proteins or buffer", "setting": "[3]; HSPs 100 μg/ml, P<0.01 vs medium alone", "result": "increase in uptake"},
      {"measurement": "increase in phagocytosis", "setting": "[3]; RAW264.7, labeled S. cerevisiae, HSP70 100 μg/ml, 60 minutes at 37° C.", "result": "4-6 times the basal rate"},
      {"measurement": "uptake of yeast by macrophages pre-treated with HSP and washed", "setting": "[3]; compared with HSP and yeast administered simultaneously", "result": "enhanced the uptake of yeast to the same extent"},
      {"measurement": "doses unable to stimulate uptake", "setting": "[3]; dose range 10-100 μg/ml", "result": "less than 20 μg/ml"},
      {"measurement": "quantity of phagocytosis at higher doses", "setting": "[3]; doses up to 200 μg/ml", "result": "did not result in any further increase in the quantity of phagocytosis"},
      {"measurement": "dose at which the peak effect occurred", "setting": "[3]; plateau through 100 μg/ml", "result": 40, "unit": "µg/mL"},
      {"measurement": "ability to enhance phagocytosis", "setting": "[3]; serum-free conditions, 1 hour, HSP70 100 μg/ml, LPS 25 ng-1 μg/ml, heating 100° C. for 20 minutes", "result": "able to enhance phagocytosis equally whether in the presence or absence of serum"},
      {"measurement": "time for antigen uptake to reach a plateau", "setting": "[3]; time-titration 10-90 minutes", "result": "≤ 45", "unit": "min"}
    ]}
  ]
}
